Test results as given in US10253002B2, “Compounds and methods of treating infections” (Neoculi Pty Ltd., priority 2013, dated 2019).
“And” between values parts separate entries of the source, which are not always exact repeats. Equal entries are not always repeated.

Key:
Test in all cases: Broth microdilution MIC, Example 7 (NCL812 and analogues)
Pseudomonas aeruginosa = assay type: cell-based; conditions: P. aeruginosa; 24 hours; duplicate lines per compound
MRSA = assay type: cell-based, Staphylococcus aureus; conditions: 24 hours, duplicate lines per compound
In short: (§1)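 CLSI broth microdilution against two MRSA and two VRE strains, tested in duplicate with a third run if results differed by more than one two-fold dilution.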

VRE = assay type: cell-based, Enterococcus spp.; conditions: 24 hours, duplicate lines per compound
In short: as §1

Escherichia coli = assay type: cell-based; conditions: E. coli; 24 hours; duplicate lines per compound

Row | Structure (SMILES) | MIC (μg/ml) at 24 hours, P. aeruginosa (Pseudomonas aeruginosa) | MIC (μg/ml) at 24 hours, MRSA 1 (MRSA) | MIC (μg/ml) at 24 hours, MRSA 2 (MRSA) | MIC (μg/ml) at 24 hours, VRE 1 (VRE) | MIC (μg/ml) at 24 hours, VRE 2 (VRE) | MIC (μg/ml) at 24 hours, E. coli (Escherichia coli)
1 | Cl.N=C(NN=Cc1ccc(F)c(F)c1)NN=Cc1ccc(F)c(F)c1 [NCL 123] | >128 µg/mL | 16 µg/mL and 32 µg/mL | 4 µg/mL and 8 µg/mL | 4 µg/mL | 4 µg/mL | >128 µg/mL
2 | Cl.N=C(NN=Cc1c(O)ccc2ccccc12)NN=Cc1c(O)ccc2ccccc12 [NCL 124] | >128 µg/mL | >128 µg/mL | >128 µg/mL | >128 µg/mL | >128 µg/mL | >128 µg/mL
3 | COc1ccc(C=NNC(=N)NN=Cc2ccc(OC)c(O)c2)cc1O.Cl [NCL 125] | >128 µg/mL | >128 µg/mL | >128 µg/mL | >128 µg/mL | >128 µg/mL | >128 µg/mL
4 | C#Cc1cccc(C=NNC(=N)NN=Cc2cccc(C#C)c2)c1.Cl [NCL 126] | >128 µg/mL | >128 µg/mL | >128 µg/mL | 4 µg/mL and 8 µg/mL | >128 µg/mL | >128 µg/mL
5 | Cl.N=C(N/N=C/c1ccc(Cl)cc1Cl)N/N=C/c1ccc(Cl)cc1Cl [NCL 127] | >128 µg/mL | >128 µg/mL | >128 µg/mL | >128 µg/mL | >128 µg/mL | >128 µg/mL
6 | Cl.N=C(N/N=C/c1c(F)c(F)c(F)c(F)c1F)N/N=C/c1c(F)c(F)c(F)c(F)c1F [NCL 128] | >128 µg/mL | >128 µg/mL | >128 µg/mL | >128 µg/mL | >128 µg/mL | >128 µg/mL
7 | Cl.N=C(N/N=C/c1ccccc1Br)N/N=C/c1ccccc1Br [NCL 129] | >128 µg/mL | >128 µg/mL | >128 µg/mL | >128 µg/mL | >128 µg/mL | >128 µg/mL
8 | COc1cc(C=NNC(=N)NN=Cc2cc(Br)c(OC)c(OC)c2)cc(Br)c1OC.Cl [NCL 130] | >128 µg/mL | >128 µg/mL | >128 µg/mL | >128 µg/mL | >128 µg/mL | >128 µg/mL
9 | Cl.N=C(NN=Cc1cccc(Br)c1)NN=Cc1cccc(Br)c1 [NCL 131] | >128 µg/mL | >128 µg/mL | >128 µg/mL | 4 µg/mL | >128 µg/mL | >128 µg/mL
10 | Cl.N=C(NN=CC1=C(Cl)c2cc(F)ccc2OC1)NN=CC1=C(Cl)c2cc(F)ccc2OC1 [NCL 132] | >128 µg/mL | >128 µg/mL | >128 µg/mL | >128 µg/mL | >128 µg/mL | >128 µg/mL
11 | Cl.N=C(NN=Cc1cc(Br)co1)NN=Cc1cc(Br)co1 [NCL 133] | >128 µg/mL | >128 µg/mL | >128 µg/mL | >128 µg/mL | >128 µg/mL | >128 µg/mL
12 | Cl.N=C(N/N=C/c1ccc(Br)cc1)N/N=C/c1ccc(Br)cc1 [NCL 134] | >128 µg/mL | >128 µg/mL | >128 µg/mL | >128 µg/mL | >128 µg/mL | >128 µg/mL
13 | COc1cc(Br)c(C=NNC(=N)NN=Cc2cc(OC)c(OC)cc2Br)cc1OC.Cl [NCL 135] | >128 µg/mL | >128 µg/mL | >128 µg/mL | >128 µg/mL | >128 µg/mL | >128 µg/mL
14 | CCCCc1ccc(C=NNC(=N)NN=Cc2ccc(CCCC)cc2)cc1.Cl [NCL 136] | >128 µg/mL | 64 µg/mL | 128 µg/mL | 32 µg/mL | 128 µg/mL | >128 µg/mL
15 | Cl.N=C(NN=Cc1c(Cl)cccc1Cl)NN=Cc1c(Cl)cccc1Cl [NCL 137] | >128 µg/mL | >128 µg/mL | >128 µg/mL | >128 µg/mL | >128 µg/mL | >128 µg/mL
16 | Cl.N=C(NN=CC(=Cc1ccccc1)c1ccccc1)NN=CC(=Cc1ccccc1)c1ccccc1 [NCL 138] | >128 µg/mL | >128 µg/mL | 32 µg/mL | >128 µg/mL | >128 µg/mL | >128 µg/mL
17 | Cl.N=C(NN=Cc1cnc2ccccc2c1)NN=Cc1cnc2ccccc2c1 [NCL 139] | >128 µg/mL | >128 µg/mL | >128 µg/mL | >128 µg/mL | >128 µg/mL | >128 µg/mL
18 | CSc1ccc(C=NNC(=N)NN=Cc2ccc(SC)cc2)cc1.Cl [NCL 140] | >128 µg/mL | – | 16 µg/mL and 32 µg/mL | – | 8 µg/mL and 16 µg/mL | >128 µg/mL
19 | Cl.N=C(NN=Cc1csc2ccc(Cl)cc12)NN=Cc1csc2ccc(Cl)cc12 [NCL 141] | >128 µg/mL | >128 µg/mL | >128 µg/mL | 16 µg/mL | >128 µg/mL | >128 µg/mL
20 | Cl.N=C(NNCc1ccccc1)NNCc1ccccc1 [NCL 142] | >128 µg/mL | >128 µg/mL | >128 µg/mL | >128 µg/mL | >128 µg/mL | >128 µg/mL
21 | CC(=NNC(=N)NN=C(C)c1ccccc1)c1ccccc1.Cl [NCL 143] | >128 µg/mL | 16 µg/mL | 16 µg/mL | 8 µg/mL | 8 µg/mL | >128 µg/mL
22 | Cl.N=C(NN=Cc1ccc(Br)o1)NN=Cc1ccc(Br)o1 [NCL 144] | >128 µg/mL | >128 µg/mL | >128 µg/mL | >128 µg/mL | >128 µg/mL | >128 µg/mL
23 | Cl.N=C(NN=Cc1ccc(Cl)o1)NN=Cc1ccc(Cl)o1 [NCL 145] | >128 µg/mL | >128 µg/mL | >128 µg/mL | >128 µg/mL | >128 µg/mL | >128 µg/mL
